From patent US4264572A, “X-ray contrast media” (Schering Aktiengesellschaft, priority 1978, dated 1981)

What was measured:
rat [1] = assay: general tolerance, LD50 i.v. in rat (7 days); type: in vivo; conditions: meglumine salts
[2] = coefficient of distribution in 1-butanol/tris-HCl buffer; type: physicochemical; conditions: pH 7.6, 1-butanol/tris-HCl buffer; meglumine salts
Text: It is furthermore seen from this table that the interaction of the new compounds with proteins is much less than that of the known comparison substances.

rat [3] = assay: neural tolerance, ED50 pericerebral in rat (24 hours); conditions: meglumine salts

| SMILES | Tolerance LD50 i.v. (7 days) (rat [1]) | Coefficient of Distribution [2] | Protein Bond (proteins) | Tolerance ED50 pericerebral (24 hours) (rat [3]) |
| --- | --- | --- | --- | --- |
| CNC(=O)c1c(I)c(C(=O)NCC(=O)Nc2c(I)c(C(=O)O)c(I)c(C(=O)NCCO)c2I)c(I)c(N(C)C(=O)COC)c1I [A, 5-(3-N-methylmethoxyacetamido-5-methylcarbamoyl-2,4,6-triiodine-benzamidoacetamido)-N-(2-hydroxyethyl)-2,4,6-triiodine-isophthalamic acid] | ~ 10,000 mg I/kg of rat | < 0.001 | 2.5 | ~ 100 mg I/kg of rat |
| CNC(=O)c1c(I)c(C(=O)NCC(=O)Nc2c(I)c(C(=O)O)c(I)c(C(=O)NCCO)c2I)c(I)c(N(C)C(C)=O)c1I [B, 5-(3-N-methyl-acetamido-2,4,6-triiodine-5-methylcarbamoyl-benzamido-acetamido)-N-(2-hydroxyethyl)-2,4,6-triiodine-isophthalamic acid] | ~ 7,500 mg I/kg of rat | 0.033 | 6.8 | ~ 40 mg I/kg of rat |
| CNC(=O)c1c(I)c(NC(C)=O)c(I)c(C(=O)O)c1I [C, 5-acetamido-2,4,6-triiodine-N-methyl-isophthalamic acid] | ~ 7,500 mg I/kg of rat | 0.017 | 7.6 | 60 mg I/kg of rat |
